Eight compounds from PubChem BioAssay (NCI) can be followed below.

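All cell lines were grown in 96-well plates and treated with compound for 48 hours. TGI is the concentration that stops growth completely.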

Experiment in all cases: NCI-60 cell line screen, 48 h
Test [1] relates to A498 renal.
The test system of test [2] is A549 NSCLC.
In test [3] the test system is BT-549 breast.
Test [4] has as its system CAKI-1 renal.
For test [5], the system named is EKVX NSCLC.
The test system of test [6] is HL-60(TB) leukemia.
The test system of test [7] is HT29 colon.
Test [8] concerns MDA-N.
Test [9] deals with MOLT-4 leukemia.
Test [10] has as its system NCI-H23 lung.
In test [11] the test system is NCI/ADR-RES ovarian.
Test [12] concerns OVCAR-4 ovarian.
In test [13] the test system is SF-268 CNS.
For test [14], the system named is SF-295 CNS.
The test system of test [15] is SNB-75 CNS.
Test [16] concerns T-47D breast.
For test [17], the system named is UACC-62 melanoma.
Test [18] concerns NCI-H226 lung.
The subject of test [19] is SR leukemia.

With `Clc1ccc(C(OCn2ccnc2)c2nc3ccccc3[nH]2)c(Cl)c1` (stereo unspecified), the TGI in test [1] is > 100 µM; in [2] it was > 100 µM; in [3], 81.7 µM; in test [4] it was > 100 µM; in test [5], > 100 µM; in test [6], > 100 µM. For the same compound, the TGI in [7], in test [8], in test [9], in test [10], in [11] and in [12] was > 100 µM in each case. In addition, the TGI in [13], in test [14], in test [15], in test [16] and in test [17] was > 100 µM in each case.
Take `COc1cc(Nc2cc(Cl)cc(Cl)c2)nc(N)n1`: the TGI was found to be 39.9 µM in test [1]; 48.5 µM in [2]; 40.8 µM in [3]; 42.8 µM in [4]; 69 µM in [5]; 33.2 µM in [7]. Besides, the TGI worked out at 62.3 µM in [8]; 51 µM in test [9]; 42.5 µM in test [18]; 49.2 µM in test [10]; 45.4 µM in test [11]; 54 µM in [12]. Further, the TGI turned out to be 41.3 µM in test [13]; 38.3 µM in [14]; 43.6 µM in test [15]; 92.5 µM in [16]; 33.4 µM in test [17].
Take `O=C(c1c(F)c(F)c(F)c(F)c1F)n1c(=S)n(C(=O)c2c(F)c(F)c(F)c(F)c2F)c2ccccc21`: the TGI in [3] was > 100 µM; in test [6], 45.6 µM; in test [7], > 100 µM; in test [8], > 100 µM; in test [9] it was 54.3 µM; in [12], > 100 µM. The TGI in test [13], in test [14], in test [15], in test [19], in [16] and in test [17] was > 100 µM each time.
For the compound `CN(CC(=O)Nc1ccccc1C(=O)O)c1ccccc1`, the TGI in test [1], in test [2], in test [3], in test [4], in test [5] and in test [6] was > 100 µM throughout. Further, the TGI in [7], in test [8], in test [9], in [18], in test [10] and in [12] was > 100 µM in each case. For the same compound, the TGI in test [13], in [14], in test [15], in [19] and in test [16] was > 100 µM throughout.
In the case of `CCCN1C(=O)CN(S(=O)(=O)c2ccc(Cl)cc2)C1=O`, the TGI in [1], in [2], in test [3], in test [4], in test [5] and in test [6] was > 100 µM throughout. For the same compound, the TGI in [7], in test [8], in test [18], in test [10], in test [12] and in test [13] was > 100 µM in each case. The TGI in test [14], in [15], in test [19], in test [16] and in test [17] was > 100 µM throughout.
Consider `CC(C)(C)n1c(=O)n2c(-c3ccccc3)c(-c3ccccc3)n2c1=O`, for which the TGI in test [1], in [2], in test [3], in [4], in [5] and in [6] was > 100 µM each time. In addition, the TGI in test [7], in test [8], in [18], in test [10], in [11] and in [12] was > 100 µM each time. Moreover, the TGI in [13], in [14], in test [15], in test [16] and in test [17] was > 100 µM throughout.
Turning to `C#CCN(C(=O)C(F)(F)F)C(/C=C\C(=O)OC)(C(=O)OCC)C(=O)OCC`, the TGI in test [1], in test [2], in test [3], in [5], in test [6] and in test [7] was > 100 µM in each case. In addition, the TGI in test [8], in [9], in [18], in test [10], in test [11] and in test [12] was > 100 µM in each case. Moreover, the TGI in [13], in [14], in test [15], in test [16] and in test [17] was > 100 µM throughout.
For `COC(=O)c1c(C)cccc1C1CN=NC12Cc1cc(C)c(C)cc1C2=O` (stereo unspecified), the TGI in test [2] was > 100 µM; in [3] it was > 100 µM; in test [4], > 100 µM; in test [5], > 100 µM; in test [6] it was 45.5 µM; in test [7], > 100 µM. In addition, the TGI in test [8] is 99.5 µM; in [9], > 100 µM; in test [18], > 100 µM; in test [10] it was > 100 µM; in test [11] it was > 100 µM; in [12] it was > 100 µM. Besides, the TGI in [13], in test [14], in test [15], in [16] and in test [17] was > 100 µM in each case.
